The text below walks through data of PMC9102038 (International Journal of Molecular Sciences, 2022).

Read-outs that look alike come from different tables or passages of the source.

Series [1] addresses T1, human PPARα-LBD (Homo sapiens, UniProt Q07869).
T1 sequence (Q07869 200-468): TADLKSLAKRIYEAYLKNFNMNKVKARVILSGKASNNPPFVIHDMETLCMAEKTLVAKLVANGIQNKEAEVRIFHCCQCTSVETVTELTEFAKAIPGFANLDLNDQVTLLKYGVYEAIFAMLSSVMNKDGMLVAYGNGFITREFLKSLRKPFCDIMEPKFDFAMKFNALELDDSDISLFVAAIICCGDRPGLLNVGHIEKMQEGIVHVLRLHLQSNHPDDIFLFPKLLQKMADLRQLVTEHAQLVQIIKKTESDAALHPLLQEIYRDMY
Kind of series: TR-FRET SRC1 coactivator peptide recruitment assay, PPARα-LBD.

The target of series [2] is T2, GAL4–human PPARα-LBD chimera (Homo sapiens, UniProt Q07869).
T2 sequence (Q07869 239-466 limits assumed): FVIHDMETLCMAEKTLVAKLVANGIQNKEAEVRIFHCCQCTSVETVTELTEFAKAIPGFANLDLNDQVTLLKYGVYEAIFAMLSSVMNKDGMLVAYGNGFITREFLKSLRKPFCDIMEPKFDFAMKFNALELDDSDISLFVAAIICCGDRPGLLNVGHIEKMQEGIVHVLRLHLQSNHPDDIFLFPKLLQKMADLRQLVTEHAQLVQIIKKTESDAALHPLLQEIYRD
Put plainly: GAL4–hPPARα-LBD dual luciferase transactivation assay in COS-7 cells.

The target in series [3] is T1, human PPARα-LBD. Put plainly: TR-FRET PGC1α coactivator peptide recruitment assay, PPARα-LBD.
Series [4] has as its target T3, human PPARγ-LBD (Homo sapiens, UniProt P37231).
T3 sequence (P37231 203-477 isoform P37231-2): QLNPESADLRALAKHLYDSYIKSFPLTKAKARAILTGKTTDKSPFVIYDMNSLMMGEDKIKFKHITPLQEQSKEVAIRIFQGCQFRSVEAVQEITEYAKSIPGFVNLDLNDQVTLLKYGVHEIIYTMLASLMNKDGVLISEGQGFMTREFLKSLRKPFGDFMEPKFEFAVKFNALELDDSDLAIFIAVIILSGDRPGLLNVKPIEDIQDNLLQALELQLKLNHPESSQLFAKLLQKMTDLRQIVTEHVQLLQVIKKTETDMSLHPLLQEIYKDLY
Kind of series: TR-FRET SRC1 coactivator peptide recruitment assay, PPARγ-LBD.

Series [5] addresses T4, GAL4–human PPARδ-LBD chimera (Homo sapiens, UniProt Q03181).
T4 sequence (Q03181 211-439 limits assumed): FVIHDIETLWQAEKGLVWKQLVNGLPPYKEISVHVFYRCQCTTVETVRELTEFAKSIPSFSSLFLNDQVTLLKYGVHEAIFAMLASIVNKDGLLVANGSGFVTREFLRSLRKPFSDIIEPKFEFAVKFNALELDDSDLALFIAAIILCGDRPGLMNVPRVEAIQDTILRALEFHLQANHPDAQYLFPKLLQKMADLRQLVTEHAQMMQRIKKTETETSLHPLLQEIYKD
Put plainly: GAL4–hPPARδ-LBD dual luciferase transactivation assay in COS-7 cells. As to conditions: for efficacy, PPARδ-LBD-mediated transactivation: maximal effect of GW501516 (0.02 µM) as 100%.

For the next series, the system named is PPARγ. Also on record: method as in PMID 14982965. As to conditions: read-out: EC50, PPARγ transactivation, previous experiments; cited from earlier work.
The target of series [6] is T3, human PPARγ-LBD. Kind of series: TR-FRET PGC1α coactivator peptide recruitment assay, PPARγ-LBD.
The test system of another series is PPARα. Also on record: method as in PMID 14982965. Conditions: read-out: EC50, PPARα transactivation, previous experiments; cited from earlier work.
The conditions of series [7]: single dose (200 mg) of bezafibrate; read-out: maximal plasma concentration (Cmax); cited from earlier work.
For series [8], the target named is T5, PPARδ-LBD (Homo sapiens, UniProt Q03181).
T5 sequence (Q03181 170-441): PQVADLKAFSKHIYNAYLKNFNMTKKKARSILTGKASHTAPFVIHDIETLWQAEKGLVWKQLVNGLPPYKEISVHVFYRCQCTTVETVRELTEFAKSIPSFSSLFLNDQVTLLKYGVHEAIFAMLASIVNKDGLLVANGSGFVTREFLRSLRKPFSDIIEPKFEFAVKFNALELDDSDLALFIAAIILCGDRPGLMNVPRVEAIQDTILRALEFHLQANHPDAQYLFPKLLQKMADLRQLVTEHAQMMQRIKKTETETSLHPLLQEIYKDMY
Kind of series: TR-FRET SRC1 coactivator peptide recruitment assay, PPARδ-LBD.

The test system of the next series is PPARδ. Also on record: method as in PMID 14982965. Conditions: read-out: EC50, PPARδ transactivation, previous experiments; cited from earlier work.
Series [9] addresses T6, GAL4–human PPARγ-LBD chimera (Homo sapiens, UniProt P37231).
T6 sequence (P37231 238-503 limits assumed): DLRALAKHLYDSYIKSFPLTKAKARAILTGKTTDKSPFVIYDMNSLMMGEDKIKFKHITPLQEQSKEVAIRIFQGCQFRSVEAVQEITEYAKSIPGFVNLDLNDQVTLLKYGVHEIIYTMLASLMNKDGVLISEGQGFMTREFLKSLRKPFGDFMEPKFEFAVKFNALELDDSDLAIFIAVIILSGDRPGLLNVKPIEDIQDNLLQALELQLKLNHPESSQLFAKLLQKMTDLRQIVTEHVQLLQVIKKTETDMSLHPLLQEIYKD
Kind of series: GAL4–hPPARγ-LBD dual luciferase transactivation assay in COS-7 cells. As to conditions: for efficacy, PPARγ-LBD-mediated transactivation: maximal effect of GW1929 (1 µM) as 100%.

Series [10] deals with T5, PPARδ-LBD. Kind of series: TR-FRET PGC1α coactivator peptide recruitment assay, PPARδ-LBD.
Series [11] addresses T5, PPARδ-LBD. Put plainly: Circular dichroism thermostability assay, PPARδ-LBD. Type of series: binding. Also on record: His-tag (pET28a) (N, cleaved yes); made in house; host or cells: E. coli Rosetta (DE3) pLysS. As to conditions: CD at 222 nm, 10 µM protein, versus 0.1% DMSO. As for the experimental part:
Ligand-induced alterations in Tm values at 222 nm were investigated as types of reflection of α-helical stable structures of PPARs because PPAR ligand binding induces stabilization of the LBP [23, 24].
PPARα/δ/γ-LBD proteins (10 µM) were incubated with different concentrations of ligands in buffer A. CD spectra were monitored within 200–260 nm at increasing temperatures from 30 °C to 70 °C (2 °C/min) using a J-1500 spectropolarimeter equipped with a PTC-510 thermal controller (JASCO, Tokyo, Japan). […] The thermal stability of PPARs was investigated by continuously monitoring the ellipticity changes at 222 nm during thermal denaturation, and a single-site sigmoidal dose-response curve fitting program (Prism 5) was used to obtain the melting temperature (Tm) that corresponds to the midpoint of the denaturation process. The ligand-induced increases in Tm values are defined as ∆Tm.

[12] abbreviates: COS-7 cells, maximal effect of GW7647 (0.1 µM) as 100%.

For `CC(C)(Sc1ccc(CCN(CCCCC2CCCCC2)C(=O)NC2CCCCC2)cc1)C(=O)O` [GW7647], the “maximal effect, SRC1 recruitment to PPARα-LBD (× of the basal activity)” value at human PPARα-LBD [1] (at 1 µM) is on record as 6.12 ×. Besides, the “maximal effect, PPARα-LBD-mediated transactivation (× of the basal activity)” value in series [2] (COS-7 cells, at 0.1 µM) came out at 5.73 ×. For the same molecule, the “maximal effect, PGC1α recruitment to PPARα-LBD (× of the basal activity)” value at human PPARα-LBD [3] (at 1 µM) came out at 8.87 ×.
With `CC(C)(Oc1ccc(CCNC(=O)c2ccc(Cl)cc2)cc1)C(=O)O` [bezafibrate], the EC50 was 76 µM at human PPARγ-LBD [4]; 86.7 µM in series [5]; over 100 µM in the series with PPARγ; 48.9 µM at human PPARγ-LBD [6]; 25 µM in the series with PPARα; 31.8 µM at PPARδ-LBD [8]. The results for the concentration for a half-maximal effect (EC50) (in the series on PPARδ; in series [9]) were 95 µM and 178 µM, respectively. In addition, in series [5] (COS-7 cells), the “efficacy, PPARδ-LBD-mediated transactivation” value was determined as 15.2%. Moreover, the Cmax in [7] was 20.4 µM. Besides, the “efficacy, PPARα-LBD-mediated transactivation” value in [2] was 93.6%. Moreover, in series [9] (COS-7 cells), the “efficacy, PPARγ-LBD-mediated transactivation” value was found to be 77.1%.
For the molecule `CC(C)(Oc1ccc(C(=O)c2ccc(Cl)cc2)cc1)C(=O)O` [fenofibric acid], the half-maximal effective concentration (EC50) at PPARδ-LBD [10] was over 100 µM; in series [5], over 500 µM; at human PPARα-LBD [1], 9.87 µM; at PPARδ-LBD [8], over 500 µM; in series [2], 9.47 µM; on human PPARα-LBD [3], 20.9 µM. Besides, the “PGC1α recruitment to PPARδ-LBD (in words)” value on PPARδ-LBD [10] (TR-FRET) is “did not recruit PGC1α”. The “PPARδ-LBD-mediated transactivation (in words)” value in [5] (COS-7 cells) is “did not induce transactivation”. For the same molecule, the “effect on Tm of PPARδ-LBD (thermostability, in words)” value at PPARδ-LBD [11] was “increased thermostability”. Further, in [2] (setting [12]), the “efficacy, PPARα-LBD-mediated transactivation” value is recorded as 104%. Moreover, the “efficacy, PPARγ-LBD-mediated transactivation” value in [9] (COS-7 cells) amounted to 87.7%.
Regarding `CC[C@@H](Oc1cccc(CN(CCCOc2ccc(OC)cc2)c2nc3ccccc3o2)c1)C(=O)O` [pemafibrate], the half-maximal effective concentration (EC50) was over 10 µM at human PPARγ-LBD [4]; 6.11 µM at PPARδ-LBD [10]; 1.39 µM in series [5]; 9.7 µM on human PPARγ-LBD [6]; 4.82 µM at PPARδ-LBD [8]; over 5 µM in series [9]. Further, the “efficacy, PPARδ-LBD-mediated transactivation” value in [5] (COS-7 cells) stood at 11.3%. The “efficacy, PPARα-LBD-mediated transactivation” value in series [2] (setting [12]) was 107%. In series [9] (COS-7 cells), the “efficacy, PPARγ-LBD-mediated transactivation” value is 119%.
For the molecule GW1929, the “maximal effect, SRC1 recruitment to PPARγ-LBD (× of the basal activity)” value at human PPARγ-LBD [4] (at 1 µM) amounted to 9.26 ×. Besides, the “maximal effect, PGC1α recruitment to PPARγ-LBD (× of the basal activity)” value on human PPARγ-LBD [6] (at 1 µM) is 5.80 ×. Also, the “maximal effect, PPARγ-LBD-mediated transactivation (× of the basal activity)” value in series [9] (COS-7 cells, at 1 µM) is reported as 2.26 ×.
